Data published in patent publication US20260055051A1, “Compound with anti-tumor activity, preparation method therefor, and use thereof” (Ocean University of China, priority 2022, published 2026).

Key:
[1] = system: A549, HepG2, HCT116, HT-29, K562, hela, and MCF-7 cell lines; assay: In vitro tumor cell proliferation inhibition assay, summary over all 7 types of cells; type: cell-based; settings: Homo sapiens
Experimental: (§1) Sulforhodamine B Colorimetric Method (SRB Method) and MTT Colorimetric Method (MTT Method)
(§2) Human lung cancer cell line A549, human liver cancer cell line HepG2, human colon cancer cell line HCT116, human colon cancer cell line HT-29, human leukemia cell line K562, human cervical cancer cell line hela, and human breast cancer cell line MCF-7, all provided by the Shanghai Cell Bank, Chinese Academy of Sciences.
(§3) A549, HepG2, HCT116, HT-29, K562, hela, and MCF-7 cells were cultured respectively in 1640, DMEM, 5A, 5A, 1640, DMEM, and 1640 culture media containing 10 wt % heat-inactivated FBS (fetal bovine serum), 2 mM L-glutamine, 100 U/mL penicillin and […] streptomycin, in a cell incubator at 37° C. and 5 vol % CO2. The medium was replaced every two days. After the A549, HepG2, HCT116, HT-29, hela, and MCF-7 cells were confluent, they were digested with 0.05% (w/v) trypsin-EDTA at 37° C., passaged, and maintained in the logarithmic growth phase suitable for testing. The K562 suspension cells were passaged without digestion, and maintained in the logarithmic growth phase suitable for testing. The A549, HepG2, HCT116, HT-29, K562, hela, and MCF-7 cells in the logarithmic growth phase were inoculated to 96-well plates at 5000, 5000, 5000, 5000, 6000, 5000, 5000 per well, respectively, and cultured at 37° C. for 24 h.
(§4) Then various concentrations of test samples were added. The positive control group was doxorubicin hydrochloride (final concentration was 1 μM), the solvent control group was an equal volume of DMSO, and the blank control group was an equal volume of a culture medium, with 4 replicate wells for each concentration. After the A549, HepG2, HCT116, HT-29, hela, and MCF-7 cells were treated with the test drugs for 72 hours, the cells in each well were fixed with 50% (m/v) cold trichloroacetic acid (TCA) and stained with SRB. Then […] of Tris solution was added, and the OD value at the wavelength of 540 nm was measured using a microplate reader. For K562 cells, after 72 hours of treatment with the test drugs, […] of 5 mg/mL MTT was added, and the cells were incubated at 37° C. for 4 hours. Next, […] of a triplet solution (10% SDS, 5% isobutanol, 12 mM HCl) was added, followed by further incubation for 12 to 20 hours. The OD value at the wavelength of 570 nm was measured using a microplate reader.
(§5) The tumor cell growth inhibition rate was calculated according to the following equation: […]
(§6) in the equation, • OD540 control well is the absorbance of the control group; • OD540 dosing well is the absorbance of the test group.
(§7) IC50 values of the test drugs (calculated by GraphPad Prism 5 software) were the means of the results of triplicate experiments.

[2] = system: human colon cancer cell line HT-29; assay: In vitro tumor cell proliferation inhibition assay (SRB method), HT-29; type: cell-based; settings: 72 hours; for IC50: SRB, mean of triplicate experiments, read-out: IC50 against HT-29
Experimental: as §1, §2, §3, §4, §5, §6, §7

[3] = system: human lung cancer cell line A549; assay: In vitro tumor cell proliferation inhibition assay (SRB method), A549; type: cell-based; settings: 72 hours; for IC50 / inhibition at 10 µM: SRB; for IC50: mean of triplicate experiments, read-out: IC50 against A549; for inhibition at 10 µM: test compounds 10 μM
Experimental: as §1, §2, §3, §4, §5, §6, §7

[4] = system: human colon cancer cell line HCT116; assay: In vitro tumor cell proliferation inhibition assay (SRB method), HCT116; type: cell-based; settings: for IC50: HCT-116, 72 hours, mean of triplicate experiments, read-out: IC50 against HCT116; for IC50 / inhibition at 10 µM: SRB; for inhibition at 10 µM: HCT-116, test compounds 10 μM
Experimental: as §1, §2, §3, §4, §5, §6, §7

[5] = system: human breast cancer cell line MCF-7; assay: In vitro tumor cell proliferation inhibition assay (SRB method), MCF-7; type: cell-based; settings: for IC50: MCF7, 72 hours, SRB, mean of triplicate experiments, read-out: IC50 against MCF-7
Experimental: as §1, §2, §3, §4, §5, §6, §7

[6] = system: human leukemia cell line K562; assay: In vitro tumor cell proliferation inhibition assay (MTT method), K562; type: cell-based; settings: 72 hours; for IC50: mean of triplicate experiments, read-out: IC50 against K562
Experimental: as §1, §2, §3, §4, §5, §6, §7

[7] = system: human liver cancer cell line HepG2; assay: In vitro tumor cell proliferation inhibition assay (SRB method), HepG2; type: cell-based; settings: 72 hours; for IC50 / inhibition at 10 µM: SRB; for IC50: mean of triplicate experiments, read-out: IC50 against HepG2; for inhibition at 10 µM: test compounds 10 μM
Experimental: as §1, §2, §3, §4, §5, §6, §7

[8] = system: human cervical cancer cell line hela; assay: In vitro tumor cell proliferation inhibition assay (SRB method), hela; type: cell-based; settings: 72 hours; for IC50: SRB, mean of triplicate experiments, read-out: IC50 against hela
Experimental: as §1, §2, §3, §4, §5, §6, §7

A549 cells = assay: A549 cell-BALB/c nude mouse subcutaneous tumor transplantation experiment; type: in vivo, BALB/c nude mice; settings: A549 model, test compound 0.5 mg/mL at 10 mL/kg tail vein, 15 times, 6 times
Experimental: (§8) BALB/c nude mice were subcutaneously inoculated with A549, HCT116 and HT-29 cells to establish tumor transplantation models. • Solvent Control Group: 2% DMSO+normal saline+sodium carbonate (the molar ratio of the compound to sodium carbonate is 1:2) • 5-fluorouracil control group: 5-fluorouracil injection (20 mg/kg);
(§9) Test compound group: 1 mg of a test compound was fully dissolved in […] DMSO, and then diluted with normal saline to 0.5 mg/mL. 2 mL was used each time, freshly prepared before use on the same day.
(§10) Eight mice were in each group.
(§11) The solvent control group and the test compound group were administered at a dose of 10 mL/kg via tail vein injection (the dose for each administration was calculated based on the body weight on that day), 5 times a week, for a total of 15 times. The animals were euthanized after the last administration.
(§12) The 5-fluorouracil control group was administered twice a week for a total of 6 times.
(§13) The body weight and tumor diameter were measured twice a week during the administration period. Tumors and the spleen were removed and weighed after euthanasia. The tumor volume, relative tumor volume (RTV), relative tumor growth rate (T/C %), tumor volume inhibition rate (IRTV%), and tumor weight inhibition rate (IRTW%) were calculated. Data for animals that died accidentally were only listed but excluded from statistical analysis.

HCT116 cells = assay: HCT116 cell-BALB/c nude mouse subcutaneous tumor transplantation experiment; type: in vivo, BALB/c nude mice; settings: HCT116 model; test compound 0.5 mg/mL at 10 mL/kg tail vein, 15 times; 5-fu 20 mg/kg, 6 times
Experimental: as §8, §9, §10, §11, §12, §13

[9] = upper bound over A549, HepG2, HCT116, HT-29, K562, hela, MCF-7
[10] = read-out: Inhibition rate on A549
[11] = 72 hours, read-out: Inhibition rate on HCT116
[12] = read-out: Inhibition rate on HepG2

SMILES | IC50 [2] [µM] | IC50 [3] [µM] | inhibition at 10 µM [3, 10] [%] | IC50 [4] [µM] | inhibition at 10 µM [4, 11] [%] | IC50 [5] [µM] | IC50 [6] [µM] | IC50 [7] [µM] | inhibition at 10 µM [7, 12] [%] | IC50 [8] [µM] | other results
Cc1c(O)c(CNC(=O)CCl)cc(CNC(=O)CCl)c1O [Compound I-3, N-(2,4-dihydroxy-3-methyl-5-chloroacetamidomethylbenzyl) chloroacetamide] | 10.7 | 7.4 | 95.9 | 5.12 | 76.5 | 9.73 | 14.5 | 6.04 | 92.3 | 9.3 | IC50 [1, 9]: < 35.5 µM
C=CC(=O)NCc1c(C(=O)OC)cc(O)c(O)c1O [Compound I-8, N-(2,3,4-trihydroxy-6-carbomethoxy-benzyl) acrylamide] | – | – | 28.5 | – | 30.4 | – | – | – | 54.8 | – | –
C=CC(=O)NCc1cc(CNC(=O)C=C)c(O)c(C(C)=O)c1O [Compound I-15] | – | – | 7.05 | – | 27.7 | – | – | – | 33.5 | – | –
C=CC(=O)NCc1c(O)c(O)c(O)c(CNC(=O)C=C)c1C(=O)O [Compound I-1, N-(2,3,4-trihydroxy-5-acrylamidomethyl-6-carboxybenzyl) acrylamide] | 16.6 | 2.73 | 89.3 | 4.77 | 92.3 | 4.6 | > 50 | 8.31 | 57.5 | 23.8 | average tumor volume at the end of the experiment (A549 cells; 5 times a week, 5-fu 20 mg/kg twice a week): 539.48 mm^3; inhibitory effect (inhibition rate of average tumor weight, FIG. 6) (A549 cells; 5-fu 20 mg/kg): 33.25%; inhibitory effect (inhibition rate of average tumor weight, FIG. 6) (HCT116 cells): 35.13%
C=CC(=O)NCc1cc(C(=O)OC)cc(O)c1O [Compound I-18] | – | – | 10.5 | – | 22.5 | – | – | – | 73 | – | –
CCCOC(=O)c1cc(O)c(O)c(O)c1CNC(C)=O [Compound I-11, N-(2,3,4-trihydroxy-6-propoxycarbonyl-benzyl) acetamide] | – | – | 32.5 | – | 38.2 | – | – | – | 55.5 | – | –
Cc1c(C)c(CNC(=O)CCl)c(C)c(CNC(=O)CCl)c1O [Compound I-5, N-(2,3,6-trimethyl-4-hydroxy-5-chloroacetamidomethylbenzyl) chloroacetamide] | 9.39 | 6.32 | 89.5 | 5.32 | 97.3 | 3.74 | 6.93 | 4.06 | 95.3 | 5.64 | IC50 [1, 9]: < 35.5 µM; IC50 ([1]; upper bound over all 7 types of cells, compound I-5): < 9.4 µM
COC(=O)c1cc(O)c(O)c(O)c1CNC(=O)c1ccccc1 [Compound I-14, N-(2,3,4-trihydroxy-6-carbomethoxy-benzyl) benzamide] | – | – | 37.7 | – | 34.1 | – | – | – | 1.56 | – | –
COc1cccc2c1C(=O)c1c(O)c3c(c(O)c1C2=O)C[C@@](O)(C(=O)CO)C[C@@H]3O[C@H]1C[C@H](N)[C@H](O)[C@H](C)O1 [doxorubicin, reference compound] | – | – | – | – | – | – | – | – | – | – | inhibition at 1 µM ([2]; doxorubicin 1 μM, read-out: Inhibition rate on HT-29): 95.3%; inhibition at 1 µM ([3]; doxorubicin 1 μM, read-out: Inhibition rate on A549): 88.8%; inhibition at 1 µM ([4]; HCT-116, doxorubicin 1 μM, 72 hours, read-out: Inhibition rate on HCT116): 60.9%; inhibition at 1 µM ([5]; MCF7, doxorubicin 1 μM, 72 hours, read-out: Inhibition rate on MCF-7): 69.1%; inhibition at 1 µM ([6]; doxorubicin 1 μM, read-out: Inhibition rate on K562): 40.8%; inhibition at 1 µM ([7]; doxorubicin 1 μM, read-out: Inhibition rate on HepG2): 78.1%; inhibition at 1 µM ([8]; doxorubicin 1 μM, read-out: Inhibition rate on hela): 44.3%
CCCOC(=O)c1cc(O)c(O)c(O)c1CNC(=O)CCl [Compound I-13, N-(2,3,4-trihydroxy-6-propoxycarbonyl-benzyl) chloroacetamide] | – | – | 29.6 | – | 37.8 | – | – | – | 55 | – | –
CC(=O)NCc1c(O)c(O)c(O)c(CNC(C)=O)c1C(=O)O [Compound I-2, N-(2,3,4-trihydroxy-5-acetamidomethyl-6-carboxybenzyl) acetamide] | > 50 | 4.84 | 69.9 | > 50 | 82 | > 50 | > 50 | > 50 | 18.4 | > 50 | –
C=CC(=O)NCc1c(C(=O)OCCC)cc(O)c(O)c1O [Compound I-9, N-(2,3,4-trihydroxy-6-propoxycarbonyl-benzyl) acrylamide] | – | – | 27.5 | – | 29.1 | – | – | – | 51.1 | – | –
COC(=O)c1cc(O)c(O)c(O)c1CNC(=O)CCl [Compound I-12, N-(2,3,4-trihydroxy-6-carbomethoxy-benzyl) chloroacetamide] | – | – | 40.9 | – | 47.6 | – | – | – | 55.9 | – | –
C=CC(=O)NCc1cc(C(C)=O)c(O)c(CNC(=O)C=C)c1O [Compound I-16] | – | – | 4.84 | – | 33.9 | – | – | – | 13 | – | –
COC(=O)c1cc(O)c(O)c(O)c1CNC(C)=O [Compound I-10, N-(2,3,4-trihydroxy-6-carbomethoxy-benzyl) acetamide] | – | – | 38.2 | – | 34.8 | – | – | – | 55.8 | – | –
C=CC(=O)NCc1c(O)c(Br)c(O)c(CNC(=O)C=C)c1C(=O)O [Compound I-17] | 8.6 | 7.77 | 95.8 | 2.74 | 91.5 | 2.93 | 18 | 3.05 | 90.3 | 3.01 | IC50 [1, 9]: < 35.5 µM
